Measured values from article PMC3889317 (Diabetes Therapy, 2013).

Experiment: Plasma pharmacokinetics
Conditions: during 5 days of dosing

Plasma concentrations appeared to reach steady state by: Day 5
Compound: N#C[C@@H]1C[C@@H]2C[C@@H]2N1C(=O)[C@@H](N)C12CC3CC(O)(CC(O)(C3)C1)C2 [5-OH-Saxagliptin, 5-hydroxy-saxagliptin]
